Test in all cases: Greenhouse trial: effect of adjuvants on activity of glyphosate IPA (fresh weight)
Assay type in all cases: in vivo

The test system of test [1] is Cirsium arvense L. (CIRAR). Particulars: fresh weight relative to untreated plant, 14 days after application; 20.3 g a.e./ha glyphosate IPA; adjuvant 0.25 wt % in spray solution. How it is done: (§1) For the purpose of determining the biological activity, greenhouse trials were carried out with glyphosate on Echinochloa crus-galli (L.) Beauv. (ECHCG), Cirsium arvense L. (CIRAR), and Solanum nigrum L. (SOLNI). The plants were cultivated in a greenhouse under 14 hours of irradiation with light at a temperature of 19/14 (±0.5°) C. (day/night) and a relative humidity of 70/80 (±5)% (day/night). The light was supplied via high-pressure sodium lamps, high-pressure mercury lamps, and fluorescent tubes, producing a power of 70 W/m^2 at the leaf level. The plants were grown in 12 cm diameter plastic pots filled with a mixture of sand and humus in a sand:humus ratio of 1:2 by volume.
(§2) The pots were placed on an under-soil watering mat, which was wetted daily with a medium-strength nutrient solution. Following their appearance at the substrate surface, seedlings were thinned out to five (ECHCG), two (CIRAR), or one (SOLNI) plant per pot for the activity tests.
(§3) The spray solutions were applied using a laboratory sprayer operated with compressed air and fitted with a Teejet TP8003E nozzle at an application rate of 200 l/ha to the plants at 303 kPa. ECHCG was treated at the two- to three-leaf stage; CIRAR and SOLNI were treated at the four-leaf stage.
(§4) For the more differentiated examination of the adjuvant effect, the glyphosate active ingredient was underdosed, meaning that the plants are not completely killed. This was done using aqueous solutions of glyphosate-isopropylammonium salt (glyphosate IPA). The amount of glyphosate used was 33.8 g a.e./ha glyphosate IPA (corresponding to 1.0 mmol or 0.17 g a.e./l for a liquid volume of […]) in the case of ECHCG, and at 20.3 g a.e./ha glyphosate IPA (corresponding to […] or 0.10 g a.e./l at a liquid volume of 200 l/ha) for CIRAR and SOLNI. […]
(§5) The activity of the various adjuvants was assessed 14 days after application, by determining the mass of the plant parts still present (fresh weight; FW), and was reported as a percentage fraction, relative to the untreated plant (Table 3).

The subject of test [2] is Echinochloa crus-galli (L.) Beauv. (ECHCG). The conditions noted are these: fresh weight relative to untreated plant, 14 days after application; 33.8 g a.e./ha glyphosate IPA; adjuvant 0.25 wt % in spray solution. How it is done: as §1, §2, §3, §4, §5
Test [3] has as its system Solanum nigrum L. (SOLNI). Particulars: fresh weight relative to untreated plant, 14 days after application; 20.3 g a.e./ha glyphosate IPA; adjuvant 0.25 wt % in spray solution. The procedure: as §1, §2, §3, §4, §5

These results are taken from patent US10772324B2, “Aqueous adjuvant-compositions” (CLARIANT FINANCE (BVI) LIMITED, priority 2012, dated 2020).

“glyphosate-isopropylammonium salt [Glyphosate IPA]”: in test [1], the “FW in % (CIRAR)” value was determined as 95.9%. In addition, in test [2], the “FW in % (ECHCG)” value stood at 74.3%. Also, the “FW in % (SOLNI)” value in test [3] is given as 84.5%.
